Results published in PubChem BioAssay (NCI).
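The compound was tested at five concentrations on cells cultured in 96-well plates, with a 48-hour exposure period. TGI: total growth inhibition.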

Experiments:
Test in all cases: DTP human tumour cell line panel, 48 h
786-0 renal = test system: 786-0 renal
ACHN renal = test system: ACHN renal
CAKI-1 renal = test system: CAKI-1 renal
CCRF-CEM leukemia = test system: CCRF-CEM leukemia
COLO 205 colon = test system: COLO 205 colon
HCC-2998 colon = test system: HCC-2998 colon
HCT-116 colon = test system: HCT-116 colon
HOP-62 NSCLC = test system: HOP-62 NSCLC
HOP-92 NSCLC = test system: HOP-92 NSCLC
HS 578T breast = test system: HS 578T breast
HT29 colon = test system: HT29 colon
IGROV1 ovarian = test system: IGROV1 ovarian
MDA-N = test system: MDA-N
NCI-H23 lung = test system: NCI-H23 lung
NCI-H460 lung = test system: NCI-H460 lung
NCI/ADR-RES ovarian = test system: NCI/ADR-RES ovarian
PC-3 prostate = test system: PC-3 prostate
RXF 393 renal = test system: RXF 393 renal
SK-OV-3 ovarian = test system: SK-OV-3 ovarian
SN12C renal = test system: SN12C renal

Compound: Cc1c(N=Nc2ccc(Cl)cc2)c(C)n(C2OC(CO)C(O)C(O)C2O)c(=S)c1C#N (stereo unspecified)
- TGI (786-0 renal): 37.4 µM
- TGI (ACHN renal): 55.5 µM
- TGI (CAKI-1 renal): > 100 µM
- TGI (CCRF-CEM leukemia): 53.5 µM
- TGI (COLO 205 colon): 40.6 µM
- TGI (HCC-2998 colon): 58.7 µM
- TGI (HCT-116 colon): 29.1 µM
- TGI (HOP-62 NSCLC): 36.8 µM
- TGI (HOP-92 NSCLC): 71.4 µM
- TGI (HS 578T breast): 83 µM
- TGI (HT29 colon): > 100 µM
- TGI (IGROV1 ovarian): 37.4 µM
- TGI (MDA-N): 50.4 µM
- TGI (NCI-H23 lung): 74.3 µM
- TGI (NCI-H460 lung): 87.4 µM
- TGI (NCI/ADR-RES ovarian): 47.1 µM
- TGI (PC-3 prostate): 68.7 µM
- TGI (RXF 393 renal): 71.6 µM
- TGI (SK-OV-3 ovarian): > 100 µM
- TGI (SN12C renal): 41.8 µM

Compound: COc1ccc(/C=C2\CCc3cc(OC)c(OC)cc3C2=O)cc1
- TGI (786-0 renal): > 10 µM
- TGI (ACHN renal): > 10 µM
- TGI (CAKI-1 renal): > 10 µM
- TGI (CCRF-CEM leukemia): > 10 µM
- TGI (COLO 205 colon): > 10 µM
- TGI (HCC-2998 colon): > 10 µM
- TGI (HCT-116 colon): > 10 µM
- TGI (HOP-62 NSCLC): > 10 µM
- TGI (HOP-92 NSCLC): > 10 µM
- TGI (HS 578T breast): > 10 µM
- TGI (HT29 colon): > 10 µM
- TGI (IGROV1 ovarian): > 10 µM
- TGI (MDA-N): > 10 µM
- TGI (NCI-H23 lung): > 10 µM
- TGI (NCI-H460 lung): > 10 µM
- TGI (NCI/ADR-RES ovarian): > 10 µM
- TGI (PC-3 prostate): > 10 µM
- TGI (RXF 393 renal): > 10 µM
- TGI (SK-OV-3 ovarian): > 10 µM
- TGI (SN12C renal): > 10 µM

Compound: COC(=O)/C=C1\CCCN1CCc1cc2c(cc1CC#N)OCO2
- TGI (786-0 renal): > 100 µM
- TGI (ACHN renal): > 100 µM
- TGI (CAKI-1 renal): > 100 µM
- TGI (CCRF-CEM leukemia): > 100 µM
- TGI (COLO 205 colon): > 100 µM
- TGI (HCC-2998 colon): 93.7 µM
- TGI (HCT-116 colon): > 100 µM
- TGI (HOP-62 NSCLC): > 100 µM
- TGI (HOP-92 NSCLC): > 100 µM
- TGI (HS 578T breast): > 100 µM
- TGI (HT29 colon): > 100 µM
- TGI (IGROV1 ovarian): > 100 µM
- TGI (MDA-N): 45.6 µM
- TGI (NCI-H23 lung): > 100 µM
- TGI (NCI-H460 lung): > 100 µM
- TGI (NCI/ADR-RES ovarian): > 100 µM
- TGI (PC-3 prostate): > 100 µM
- TGI (RXF 393 renal): > 100 µM
- TGI (SK-OV-3 ovarian): > 100 µM
- TGI (SN12C renal): > 100 µM

Compound: Nc1nnc2oc3ccc4ccccc4c3cc1-2
- TGI (786-0 renal): > 100 µM
- TGI (ACHN renal): 80.1 µM
- TGI (CAKI-1 renal): > 100 µM
- TGI (CCRF-CEM leukemia): > 100 µM
- TGI (COLO 205 colon): 56.8 µM
- TGI (HCC-2998 colon): 77.4 µM
- TGI (HCT-116 colon): > 100 µM
- TGI (HOP-62 NSCLC): > 100 µM
- TGI (HOP-92 NSCLC): > 100 µM
- TGI (HS 578T breast): > 100 µM
- TGI (HT29 colon): > 100 µM
- TGI (IGROV1 ovarian): > 100 µM
- TGI (MDA-N): > 100 µM
- TGI (NCI-H23 lung): > 100 µM
- TGI (NCI-H460 lung): > 100 µM
- TGI (NCI/ADR-RES ovarian): > 100 µM
- TGI (PC-3 prostate): > 100 µM
- TGI (RXF 393 renal): > 100 µM
- TGI (SK-OV-3 ovarian): > 100 µM
- TGI (SN12C renal): 87 µM

Compound: CCOC(=O)CC(=O)CSc1c(-c2ccccc2)c(=O)n(-c2ccccc2)c(=S)n1-c1ccccc1
- TGI (786-0 renal): > 100 µM
- TGI (ACHN renal): > 100 µM
- TGI (CAKI-1 renal): > 100 µM
- TGI (CCRF-CEM leukemia): > 100 µM
- TGI (COLO 205 colon): > 100 µM
- TGI (HCC-2998 colon): > 100 µM
- TGI (HCT-116 colon): > 100 µM
- TGI (HOP-62 NSCLC): > 100 µM
- TGI (HOP-92 NSCLC): > 100 µM
- TGI (HS 578T breast): > 100 µM
- TGI (HT29 colon): > 100 µM
- TGI (IGROV1 ovarian): > 100 µM
- TGI (MDA-N): > 100 µM
- TGI (NCI-H23 lung): > 100 µM
- TGI (NCI-H460 lung): > 100 µM
- TGI (NCI/ADR-RES ovarian): > 100 µM
- TGI (PC-3 prostate): > 100 µM
- TGI (RXF 393 renal): > 100 µM
- TGI (SK-OV-3 ovarian): > 100 µM
- TGI (SN12C renal): > 100 µM

Compound: CNN1C(=O)c2c(C)c(C)c(C#N)c(N)c2C1=O
- TGI (786-0 renal): > 100 µM
- TGI (ACHN renal): > 100 µM
- TGI (CAKI-1 renal): > 100 µM
- TGI (CCRF-CEM leukemia): > 100 µM
- TGI (COLO 205 colon): > 100 µM
- TGI (HCC-2998 colon): > 100 µM
- TGI (HCT-116 colon): > 100 µM
- TGI (HOP-92 NSCLC): > 100 µM
- TGI (HS 578T breast): > 100 µM
- TGI (IGROV1 ovarian): > 100 µM
- TGI (MDA-N): > 100 µM
- TGI (NCI-H460 lung): > 100 µM
- TGI (NCI/ADR-RES ovarian): > 100 µM
- TGI (PC-3 prostate): > 100 µM
- TGI (RXF 393 renal): > 100 µM
- TGI (SN12C renal): > 100 µM
